Measurements reported in US6623981B2, “Detection of patients at risk for developing integrin antagonist/agonist mediated disease states” (Bristol-Myers Squibb Company, priority 1998, dated 2003).

How the values were obtained:
[1] = tested on: platelet aggregation in platelet-rich plasma; assay: ADP-induced platelet aggregation in platelet-rich plasma (PRP); format: cell-based
Description: (§1) The reactivity of the patient's plasma with Compound A and metabolites thereof was compared. Metabolites of Compound A were isolated from rat urine and tested for their ability to prevent platelet aggregation in platelet-rich plasma. The ability of DDABs present in plasma from a patient to bind to GPIIb/IIIa in the presence of the indicated metabolites of Compound A was tested using the GPIIb/IIIa DDAB ELISA. All three metabolites of Compound A were active in preventing ADP-induced platelet aggregation using platelet rich plasma. While the metabolites only differ from the parental compound (Compound A) with respect to hydroxylation of a single carbon atom, the reactivity of the patient's DDABs with metabolite M-3 was only 50% and that with metabolite M-2 was undetectable.

[2] = Blood concentration in dosed patients; format: in vivo
GPIIb/IIIa = target: T1, GPIIb/IIIa (Homo sapiens, UniProt P05106+P08514); assay: DDAB ELISA Type-2 screen of blood donor plasma (general population); format: binding; details: American Red Cross blood donors
T1 construct: GPIIb/IIIa was either obtained from commercial sources (Enzyme Research Laboratories) or purified as outlined below; Outdated platelet concentrates; tissue Enzyme Research Laboratories (alternative source; no catalogue number given); host or cells: outdated platelet concentrates (Interstate Blood Bank)
Description: (§2) In the ELISA Type-2 procedure, Costar Enzyme Immunoassay/Radioimmunoassay [EIA/RIA] 96 well flat bottom plates (medium binding [#3591]) were coated (4° C., 16 hours) with 250 ng of GPIIb/IIIa in phosphate buffered saline (PBS) containing 1 mM CaCl2 and 0.5 mM MgCl2 (PBS/Ca/Mg) in the presence or absence of the indicated GPIIb/IIIa antagonist (100 nM). After three washing steps (PBS/Ca/Mg containing 0.05% v/v Tween 20), plasma was diluted 1:5 in PBS/Ca/Mg containing 0.05% Tween 20 and added to the coated wells in the absence or presence of the indicated GPIIb/IIIa antagonist (100 nM) for 1 hour at room temperature. The wells were washed (PBS/Ca/Mg containing 0.05% v/v Tween 20) and incubated with peroxidase-labeled goat anti-human IgG (y) (Kirkegaard & Perry) for 1 hour at room temperature. The wells were washed (PBS/Ca/Mg containing 0.05% v/v Tween 20) and developed with o-phenyleninediamine [OPD] (0.4 mg/mL in phosphate citrate buffer containing sodium perborate [Sigma]). The change of absorbance was determined kinetically for 15 minutes at […] using a standard ELISA reader. Results are expressed as either delta OD [change in optical density] (Vmax plus compound)−(Vmax minus compound), or the ratio (Vmax plus compound/Vmax minus compound).
The occurrence of DDABs in the general population was tested. Plasma samples from blood donors were obtained from the American Red Cross and tested for reactivity with Compound A and Compound B in the DDAB ELISA Type-2 procedure. While the majority of the blood donors were negative in the DDAB ELISA, 2.2 and 14.6% donors presented a reactivity (delta>3) with Compound A and Compound B, respectively. A reactivity with a delta >5 was only evident in 1.3% and 7.1% of the blood donors with Compound A and Compound B, respectively. Thus, the prevalence and titer of pre-existing DDABs is relatively low in the general population and varies with the respective GPIIb/IIIa antagonist employed.

gel purified platelets = assay: Distribution of DDABs from plasma to gel purified platelets, dose-response of antagonist, read by DDAB ELISA; format: cell-based, human; details: plasma of healthy donor with DDABs to Compound A
Description: Panel A: Citrate plasma was obtained from two patients (307, 330) and a chimpanzee (A264) presenting with thrombocytopenic episodes while treated with GPIIb/IIIa antagonists Compound A or Compound D, respectively. The resulting plasma was incubated (30 minutes, room temperature) with gel purified platelets in the absence (closed bars) or presence (open bars) of Compound A (307, 330), or Compound D (A264). Platelets were removed by centrifugation, and the resulting plasma was analyzed by a GPIIb/IIIa-specific DDAB ELISA. The ELISA determines the binding of antibodies to GPIIb/IIIa in the presence of Compound A (307, 330) or Compound D (A264). […] Panel B: Citrate plasma derived from chimpanzee A264 (open circles) or an apparently healthy donor (closed circles) containing DDABs to Compound A was incubated with gel purified platelets in the presence of the indicated dose-response of Compound D (A264) or Compound A (healthy donor) as in panel A. Platelet poor plasma was prepared and analyzed by the DDAB ELISA as in panel A. Results are expressed as percentage inhibition of DDABs in plasma in comparison to samples treated with platelets in the absence of GPIIb/IIIa antagonist.
For solution-phase absorption in the DDAB ELISA, gel filtered platelets were prepared. […] Platelet-containing fractions were manually collected and platelet concentration was determined using a Coulter Counter. […]

immobilized GPIIb/IIIa = target: T2, immobilized GPIIb/IIIa (Homo sapiens, UniProt P05106+P08514); assay: GPIIb/IIIa DDAB ELISA: binding of plasma drug-dependent antibodies in presence versus absence of GPIIb/IIIa antagonist; details: for reactivity of the thrombocytopenic chimpanzee plasma in the DDAB ELISA / reactivity of the patient's plasma in the DDAB ELISA: in words; for ratio mOD/minute in the presence versus absence of the respective compound: antagonist 100 nM
T2 construct: GPIIb/IIIa was either obtained from commercial sources (Enzyme Research Laboratories) or purified as outlined below; Outdated platelet concentrates; tissue Enzyme Research Laboratories (alternative source; no catalogue number given); host or cells: outdated platelet concentrates (Interstate Blood Bank)
Description: as §2
In the ELISA Type-1 procedure, after coating with GPIIb/IIIa, the plates were blocked with 1% goat serum (VWR Scientific) and 0.1% casein (Sigma) in PBS/Ca/Mg containing 0.05% Tween 20 for 30 minutes at room temperature, followed by the addition of plasma (diluted in PBS/Ca/Mg containing 0.05% Tween 20, 1% v/v goat serum, 0.1% casein) for 1 hour at room temperature. The secondary antibody was diluted 1:10,000 in PBS/Ca/Mg containing 0.05% Tween 20 and 0.1% casein, and added for 1 hour at room temperature. The bound peroxidase-labeled IgG was detected with 3,3′,5,5′-tetramethylbenzidine (TMB, substrate kit; Pierce) and change in absorbance was determined for 5 minutes at […]. In addition, in the ELISA Type-1 procedure, the respective GPIIb/IIIa antagonist (100 nM) was present in the appropriate wells throughout all incubation and washing steps. The ELISA Type-1 procedure with optimized blocking conditions combined with further purification of the GPIIb/IIIa reduced the background, resulting in increased signal to noise ratio. The immunoglobulin class of DDABs was determined using peroxidase-labeled murine monoclonal antibodies to human Ig (Zymed) as the detection step in the modified ELISA protocol. For these experiments, normal goat serum was replaced with normal murine serum (Zymed).
The ability of DDABs present in plasma from a patient and a chimpanzee to bind to immobilized GPIIb/IIIa in the presence of various GPIIb/IIIa antagonists were compared. Results are expressed as the ratio mOD/minute in the presence versus absence of the respective compound.
as §1

[3] = plasma #330 (thrombocytopenic patient treated with Compound A)
[4] = plasma A264 (thrombocytopenic chimpanzee dosed with Compound D)

T1 sequence (P08514 32-887 limits assumed): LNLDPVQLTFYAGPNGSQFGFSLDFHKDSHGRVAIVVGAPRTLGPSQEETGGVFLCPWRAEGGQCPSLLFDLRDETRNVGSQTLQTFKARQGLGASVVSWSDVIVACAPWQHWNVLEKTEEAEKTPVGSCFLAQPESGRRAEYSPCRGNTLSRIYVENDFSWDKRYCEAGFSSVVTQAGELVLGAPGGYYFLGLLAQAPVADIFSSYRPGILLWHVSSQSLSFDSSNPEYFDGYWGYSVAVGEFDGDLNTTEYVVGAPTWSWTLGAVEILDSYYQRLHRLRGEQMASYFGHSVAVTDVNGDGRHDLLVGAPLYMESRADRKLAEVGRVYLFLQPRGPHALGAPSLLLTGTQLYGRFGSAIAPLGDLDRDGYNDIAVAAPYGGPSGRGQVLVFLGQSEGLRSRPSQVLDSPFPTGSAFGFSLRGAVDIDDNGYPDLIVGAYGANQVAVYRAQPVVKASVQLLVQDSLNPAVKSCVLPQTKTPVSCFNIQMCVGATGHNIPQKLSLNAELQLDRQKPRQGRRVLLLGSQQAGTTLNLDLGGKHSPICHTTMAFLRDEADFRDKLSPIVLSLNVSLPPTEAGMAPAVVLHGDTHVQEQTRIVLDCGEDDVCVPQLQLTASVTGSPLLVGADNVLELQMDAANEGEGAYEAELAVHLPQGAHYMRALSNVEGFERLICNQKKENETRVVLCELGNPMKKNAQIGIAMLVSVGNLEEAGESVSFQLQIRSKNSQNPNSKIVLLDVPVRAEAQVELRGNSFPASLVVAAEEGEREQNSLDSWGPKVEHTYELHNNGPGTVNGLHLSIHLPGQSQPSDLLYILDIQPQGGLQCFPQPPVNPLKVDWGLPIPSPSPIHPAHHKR
T1 sequence (P08514 891-1039 limits assumed): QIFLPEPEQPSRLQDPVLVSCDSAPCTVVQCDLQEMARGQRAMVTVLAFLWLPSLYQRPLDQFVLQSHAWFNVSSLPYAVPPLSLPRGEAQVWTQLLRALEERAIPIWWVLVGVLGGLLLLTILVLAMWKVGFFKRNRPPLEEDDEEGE
T1 sequence (P05106 27-788): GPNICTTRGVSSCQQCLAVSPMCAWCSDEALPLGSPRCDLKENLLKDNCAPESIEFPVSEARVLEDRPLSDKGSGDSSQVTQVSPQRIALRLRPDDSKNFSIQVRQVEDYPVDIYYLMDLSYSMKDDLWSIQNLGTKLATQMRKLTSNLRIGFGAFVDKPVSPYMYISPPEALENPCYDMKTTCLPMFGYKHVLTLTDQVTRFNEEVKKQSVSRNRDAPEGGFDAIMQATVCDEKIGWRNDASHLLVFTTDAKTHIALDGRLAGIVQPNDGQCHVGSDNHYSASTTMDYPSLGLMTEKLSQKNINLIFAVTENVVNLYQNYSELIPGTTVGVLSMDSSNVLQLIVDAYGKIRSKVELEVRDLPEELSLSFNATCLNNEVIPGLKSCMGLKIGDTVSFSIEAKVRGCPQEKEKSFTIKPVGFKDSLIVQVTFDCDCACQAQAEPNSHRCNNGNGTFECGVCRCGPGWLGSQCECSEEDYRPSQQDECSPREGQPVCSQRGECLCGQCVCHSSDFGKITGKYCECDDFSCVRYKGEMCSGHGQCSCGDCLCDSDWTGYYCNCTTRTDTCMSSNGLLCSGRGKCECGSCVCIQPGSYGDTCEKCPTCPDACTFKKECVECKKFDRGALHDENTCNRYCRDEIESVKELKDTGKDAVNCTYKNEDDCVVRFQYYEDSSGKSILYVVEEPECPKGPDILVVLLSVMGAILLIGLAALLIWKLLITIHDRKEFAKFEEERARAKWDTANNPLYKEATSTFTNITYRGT
T2 sequence (P08514 32-887 limits assumed): as the sequence (P08514 32-887 limits assumed) above
T2 sequence (P08514 891-1039 limits assumed): as the sequence (P08514 891-1039 limits assumed) above
T2 sequence (P05106 27-788): as the sequence (P05106 27-788) above

Structure (SMILES) | IC50 [1] | Peak blood concentrations [2] | blood donors with a reactivity with a delta >5 (GPIIb/IIIa) | donors presenting a reactivity (delta>3) (GPIIb/IIIa) | IC50 (gel purified platelets; estimated, read-out: IC50 (inhibition of DDABs in plasma by distribution to platelets)) | concentration required to completely shift the DDABs to the platelet surface (gel purified platelets; 30 minutes, room temperature) | ELISA ratio (immobilized GPIIb/IIIa; DDABs in plasma from a patient, binding to GPIIb/IIIa in presence of Compound A or its metabolites) | reactivity of the thrombocytopenic chimpanzee plasma in the DDAB ELISA (immobilized GPIIb/IIIa) | reactivity of the patient's plasma in the DDAB ELISA (immobilized GPIIb/IIIa) | ratio mOD/minute in the presence versus absence of the respective compound (immobilized GPIIb/IIIa; [3]) | ratio mOD/minute in the presence versus absence of the respective compound (immobilized GPIIb/IIIa; [4])
CCCCOC(=O)N[C@@H](CNC(=O)C[C@H]1CC(c2ccc(C(=N)N)cc2)=NO1)C(=O)O [Compound A, 2(S)-[(n-butoxycarbonyl)amino]-3-[[[3-[4-(aminoiminomethyl)phenyl]isoxazolin-5 (R)-yl]methylcarbonyl]amino]propionic acid] | 32 nM | up to 50 nM | 1.3% | 2.2% | ~0.3 nM | Less than 1 nM | 13.5 | no reactivity | reacts strongly | 9.2 | 1.0
Cc1ccc(S(=O)(=O)N[C@@H](CNC(=O)c2cc3n(n2)CCCN(CCC2CCNCC2)C3=O)C(=O)O)cc1 [Compound C, 2(S)-((4-methylphenylsulfonyl)amino]-3-[[[5,6,7,8-tetrahydro-4-oxo-5-[2-(piperidin-4-yl)ethyl]-4H-pyrazolo-[1,5-a][1,4]diazepin-2-yl]carbonyl]amino]propionic acid] |  |  |  |  |  |  |  | less | no reactivity | 1.0 | 5.4
O=C(NC[C@H](NS(=O)(=O)c1cccnc1)C(=O)O)c1cc2cc(CCC3CCNCC3)sc2s1 [Compound D, 5-[2-(piperdin-4-yl)ethyl]thieno[2,3-b]thiophene-2-N-(3-2(S)-(3-pyridinylsulfonylamino)propionic acid]carboxamide] |  |  |  |  |  |  |  | strongly reactive | reacts strongly | 4.9 | 14.4
Cc1noc(C)c1S(=O)(=O)N[C@@H](CNC(=O)C[C@H]1CC(c2ccc(C(=N)N)cc2)=NO1)C(=O)O [Compound B] |  |  | 7.1% | 14.6% |  |  |  | no reactivity | reacts strongly | 11.2 | 0.8
